Test results taken from patent publication US20240217978A1 (CHONG KUN DANG PHARMACEUTICAL CORP., priority 2021, published 2024).

Target: human adenosine A2a receptor (Homo sapiens (Human), UniProt P29274)
Assay: A2a receptor binding affinity, [3H]-NECA radioligand binding test
Conditions: [3H]-NECA 37 nM; membrane from HEK-293 cells transfected with human adenosine A2a receptor
Protocol: The binding affinity of the compounds according to Examples of the present invention to the human adenosine A2a receptor was evaluated by entrusting SB drug discovery in the UK.
A radioligand binding test was conducted by using [3H]-NECA (5′-N-[adenine-2,8-3H]-ethylcarboxamidoadenosine) and an adenosine A2a membrane. As the adenosine A2a membrane, a cell membrane prepared from HEK-293 cells transfected with human adenosine A2a receptor was used. The membrane used for the test was prepared by incubating with a radioligand until equilibrium was reached. In order to separate the radioligand-bound membrane, the unbound radioligand was separated by using Packard filtermate Harverster and glass filter plates.
10 μL of test compound dissolved in binding buffer (50 mM Tris, 10 mM MgCl2, 1 mM EDTA pH 7.4) and 20 μL of [3H]-NECA (final concentration of 37 nM) or reference inhibitor was mixed with 20 μL of A2a membrane in an unbound 96-well plate and incubated at room temperature for one hour. Prior to filtration, a 96-well harvest filter plate was coated with 0.33% polyethylenimine for 30 minutes and then washed with assay buffer. The binding reaction was transferred to the filter plate and washed three times with wash buffer. The dish was then dried, scintillant was added, and radioactivity was counted in a scintillation counter (Topcount NXT, Packard).
The binding affinity IC50 (μM) for the human adenosine A2a receptor obtained according to the above experimental method is shown in the table below.

human adenosine A2a receptor, sequence (P29274 whole entry): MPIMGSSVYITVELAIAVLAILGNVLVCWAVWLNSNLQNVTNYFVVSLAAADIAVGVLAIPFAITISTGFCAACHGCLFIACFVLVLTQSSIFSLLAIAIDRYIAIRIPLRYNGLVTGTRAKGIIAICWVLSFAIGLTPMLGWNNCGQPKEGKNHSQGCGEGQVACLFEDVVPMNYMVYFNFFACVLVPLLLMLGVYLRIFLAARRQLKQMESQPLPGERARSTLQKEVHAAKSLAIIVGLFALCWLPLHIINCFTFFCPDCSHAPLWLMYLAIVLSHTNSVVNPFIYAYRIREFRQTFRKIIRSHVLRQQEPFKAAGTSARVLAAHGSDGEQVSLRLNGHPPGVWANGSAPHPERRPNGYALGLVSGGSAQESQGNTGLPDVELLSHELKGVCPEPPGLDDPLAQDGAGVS

Compound	IC50
COC1CCN(C(=O)[C@@H]2CCCN2c2nc(N)n3nc(-c4ccco4)nc3n2)CC1 [Example 146, (S)-(1-(7-amino-2-(furan-2-yl)-[1,2,4]triazolo[1,5-a][1,3,5]triazin-5-yl)pyrrolidin-2-yl)(4-methoxypiperidin-1-yl)methanone]	18 nM
Nc1nc(N2CCC[C@H]2C(=O)N2CCN(C3COC3)CC2)nc2nc(-c3ccco3)nn12 [Example 403, (S)-(1-(7-amino-2-(furan-2-yl)-[1,2,4]triazolo[1,5-a][1,3,5]triazin-5-yl)pyrrolidin-2-yl)(4-(oxetan-3-yl)piperazin-1-yl)methanone]	9 nM
Cc1ccc(-c2nc3nc(N4CCC[C@H]4C(=O)N4CCN(c5ccccc5C(F)(F)F)CC4)nc(N)n3n2)o1 [Example 200, (S)-(1-(7-amino-2-(5-methylfuran-2-yl)-[1,2,4]triazolo[1,5-a][1,3,5]triazin-5-yl)pyrrolidin-2-yl)(4-(2-(trifluoromethyl)phenyl)piperazin-1-yl)methanone]	1 nM
Nc1nc(N2CCC[C@H]2C(=O)N2CCN(c3ncc4c(n3)COC4)CC2)nc2nc(-c3ccco3)nn12 [Example 384, 2-(4-((7-amino-2-(furan-2-yl)-[1,2,4]triazolo[1,5-a][1,3,5]triazin-5-yl)-L-prolyl)piperazin-1-yl)-5,7-dihydrofuro[3,4-d]pyrimidine]	0.5 nM
CC(F)(F)CN1CCN(C(=O)[C@@H]2CCCN2c2nc(N)n3nc(-c4ccco4)nc3n2)CC1 [Example 224, (S)-(1-(7-amino-2-(furan-2-yl)-[1,2,4]triazolo[1,5-a][1,3,5]triazin-5-yl)pyrrolidin-2-yl)(4-(2,2-difluoropropyl)piperazin-1-yl)methanone]	6 nM
CC(C)[C@H](Nc1nc(N)n2nc(-c3ccco3)nc2n1)C(=O)N1CCN(CC(F)(F)F)CC1 [Example 144, (S)-2-((7-amino-2-(furan-2-yl)-[1,2,4]triazolo[1,5-a][1,3,5]triazin-5-yl)amino)-3-methyl-1-(4-(2,2,2-trifluoroethyl)piperazin-1-yl)butan-1-one]	14 nM
Nc1nc(N2CCC[C@H]2C(=O)N2CCN(C(=O)c3ccc(F)cc3F)CC2)nc2nc(-c3ccco3)nn12 [Example 64, (4-((7-amino-2-(furan-2-yl)-[1,2,4]triazolo[1,5-a][1,3,5]triazin-5-yl)-L-prolyl)piperazin-1-yl)(2,4-difluorophenyl)methanone]	14 nM
Nc1nc(N2CCC[C@H]2C(=O)N2CCN(C3CCC3)CC2)nc2nc(-c3ccco3)nn12 [Example 392, (S)-(1-(7-amino-2-(furan-2-yl)-[1,2,4]triazolo[1,5-a][1,3,5]triazin-5-yl)pyrrolidin-2-yl)(4-cyclobutylpiperazin-1-yl)methanone]	9 nM
Nc1nc(N2CCCN2C(=O)N2CCN(CC(F)(F)F)CC2)nc2nc(-c3ccco3)nn12 [Example 353, (2-(7-amino-2-(furan-2-yl)-[1,2,4]triazolo[1,5-a][1,3,5]triazin-5-yl)pyrazolidin-1-yl)(4-(2,2,2-trifluoroethyl)piperazin-1-yl)methanone]	8 nM
CCCCN1CCC(C2CCN(C(=O)[C@@H]3CCCN3c3nc(N)n4nc(-c5ccco5)nc4n3)CC2)CC1 [Example 265, (S)-(1-(7-amino-2-(furan-2-yl)-[1,2,4]triazolo[1,5-a][1,3,5]triazin-5-yl)pyrrolidin-2-yl)(1′-butyl-[4,4′-bipiperidin]-1-yl)methanone]	44 nM
Nc1nc(N2CCC[C@H]2C(=O)N2CCN(CC(F)(F)C(F)(F)F)CC2)nc2sc(-c3ccco3)nc12 [Example 261, (S)-(1-(7-amino-2-(furan-2-yl)thiazolo[5,4-d]pyrimidin-5-yl)pyrrolidin-2-yl)(4-(2,2,3,3,3-pentafluoropropyl)piperazin-1-yl)methanone]	0.9 nM
C[C@@H]1CN(Cc2ccc(F)cc2F)CCN1C(=O)[C@@H]1CCCN1c1nc(N)n2nc(-c3ccco3)nc2n1 [Example 51, ((S)-1-(7-amino-2-(furan-2-yl)-[1,2,4]triazolo[1,5-a][1,3,5]triazin-5-yl)pyrrolidin-2-yl)((R)-4-(2,4-difluorobenzyl)-2-methylpiperazin-1-yl)methanone]	13 nM
Nc1nc(N2CCC[C@H]2C(=O)N2CCN(c3ccccc3)CC2)nc2nc(-c3ccco3)nn12 [Example 151, (S)-(1-(7-amino-2-(furan-2-yl)-[1,2,4]triazolo[1,5-a][1,3,5]triazin-5-yl)pyrrolidin-2-yl)(4-phenylpiperazin-1-yl)methanone]	13 nM
C[C@@H]1CN(C(=O)Nc2ccccc2)CCN1C(=O)[C@@H]1CCCN1c1nc(N)n2nc(-c3ccco3)nc2n1 [Example 182, (R)-4-((7-amino-2-(furan-2-yl)-[1,2,4]triazolo[1,5-a][1,3,5]triazine-5-yl)-L-prolyl)-3-methyl-N-phenylpiperazin-1-carboxamide]	8 nM
CCCCN1CCN(C(=O)[C@@H]2CCCN2c2nc(N)n3nc(-c4ccco4)nc3n2)CC1 [Example 47, (S)-(1-(7-amino-2-(furan-2-yl)-[1,2,4]triazolo[1,5-a][1,3,5]triazin-5-yl)pyrrolidin-2-yl)(4-butylpiperazin-1-yl) methanone]	8 nM
COCCN1CCN(C(=O)[C@@H]2CCCN2c2nc(N)n3nc(-c4ccco4)nc3n2)CC1=O [Example 246, 4-((7-amino-2-(furan-2-yl)-[1,2,4]triazolo[1,5-a][1,3,5]triazin-5-yl)-L-prolyl)-1-(2-methoxyethyl)piperazin-2-one]	3 nM
C[C@H](Nc1nc(N)n2nc(-c3ccco3)nc2n1)C(=O)N1CCN(CC(F)(F)F)CC1 [Example 25, (S)-2-((7-amino-2-(furan-2-yl)-[1,2,4]triazolo[1,5-a][1,3,5]triazin-5-yl)amino)-1-(4-(2,2,2-trifluoroethyl)piperazin-1-yl)propan-1-one]	10 nM
Nc1nc(N2CCC[C@H]2C(=O)N2CCCN(CC(F)(F)F)CC2)nc2nc(-c3ccco3)nn12 [Example 278, (S)-(1-(7-amino-2-(furan-2-yl)-[1,2,4]triazolo[1,5-a][1,3,5]triazin-5-yl)pyrrolidin-2-yl)(4-(2,2,2-trifluoroethyl)-1,4-diazepan-1-yl)methanone]	20 nM
Nc1nc(N2CCC[C@H]2C(=O)N2CCN(CC3(F)CCOCC3)CC2)nc2nc(-c3ccco3)nn12 [Example 389, (S)-(1-(7-amino-2-(furan-2-yl)-[1,2,4]triazolo[1,5-a][1,3,5]triazin-5-yl)pyrrolidin-2-yl)(4-((4-fluorotetrahydro-2H-pyran-4-yl)methyl)piperazin-1-yl)methanone]	7 nM
CC(C)(O)CC(=O)N1CCN(C(=O)[C@@H]2CCCN2c2nc(N)c3nc(-c4ccco4)oc3n2)CC1 [Example 263, 1-(4-((7-amino-2-(furan-2-yl)oxazolo[5,4-d]pyrimidin-5-yl)-L-prolyl)piperazin-1-yl)-3-hydroxy-3-methylbutan-1-one]	25 nM
Nc1nc(N2CCC[C@H]2C(=O)N2CC3CCC(C2)N3CC(F)(F)F)nc2nc(-c3ccco3)nn12 [Example 204, ((S)-1-(7-amino-2-(furan-2-yl)-[1,2,4]triazolo[1,5-a][1,3,5]triazin-5-yl)pyrrolidin-2-yl)(8-(2,2,2-trifluoroethyl)-3,8-diazabicyclo[3.2.1]octan-3-yl)methanone]	13 nM
Nc1nc(N2CC[C@H]2C(=O)N2CCN(CC(F)(F)C(F)F)CC2)nc2nc(-c3ccco3)nn12 [Example 255, (S)-(1-(7-amino-2-(furan-2-yl)-[1,2,4]triazolo[1,5-a][1,3,5]triazin-5-yl)azetidin-2-yl)(4-(2,2,3,3-tetrafluoropropyl)piperazin-1-yl)methanone]	9 nM
Nc1nc(N[C@H](C(=O)N2CCN(CC(F)(F)F)CC2)C2CCCC2)nc2nc(-c3ccco3)nn12 [Example 217, (S)-2-((7-amino-2-(furan-2-yl)-[1,2,4]triazolo[1,5-a][1,3,5]triazin-5-yl)amino)-2-cyclopentyl-1-(4-(2,2,2-trifluoroethyl)piperazin-1-yl)ethan-1-one]	3 nM
C[C@H](Nc1nc(N)n2nc(-c3ccco3)nc2n1)C(=O)N1CCN(Cc2ccccc2F)CC1 [Example 22, (S)-2-((7-amino-2-(furan-2-yl)-[1,2,4]triazolo[1,5-a][1,3,5]triazin-5-yl)amino)-1-(4-(2-fluorobenzyl)piperazin-1-yl)propan-1-one]	11 nM
Nc1nc(N2CC[C@H]2C(=O)N2CCN(C(=O)Nc3ccccc3)CC2)nc2nc(-c3ccco3)nn12 [Example 110, (S)-4-(1-(7-amino-2-(furan-2-yl)-[1,2,4]triazolo[1,5-a][1,3,5]triazine-5-yl)azetidin-2-carbonyl)-N-phenylpiperazin-1-carboxamide]	12 nM
CC(C)(F)CN1CCN(C(=O)[C@@H]2CCCN2c2cc3nc(-c4ccco4)nn3c(N)n2)CC1 [Example 352, (S)-(1-(5-amino-2-(furan-2-yl)-[1,2,4]triazolo[1,5-c]pyrimidin-7-yl)pyrrolidin-2-yl)(4-(2-fluoro-2-methylpropyl)piperazin-1-yl)methanone]	6 nM
CC(F)(F)CN1CCN(C(=O)[C@@H]2CCCN2c2cc3nc(-c4ccco4)nn3c(N)n2)CC1 [Example 294, (S)-(1-(5-amino-2-(furan-2-yl)-[1,2,4]triazolo[1,5-c]pyrimidin-7-yl)pyrrolidin-2-yl)(4-(2,2-difluoropropyl)piperazin-1-yl)methanone]	4 nM
